Columns and labels:
[1] = test system: rat; details: Combined chronic toxicity/carcinogenicity, sprague dawley, Oral, Feed, dose end: 24 month, group: systemic
[2] = test system: rat; details: Subchronic oral toxicity in rodents, sprague dawley, Feed, dose end: 13 week, group: systemic
[3] = test system: rat; details: Prenatal developmental toxicity study, sprague dawley, Oral, Gavage/Intubation, dose end: 15 GD
[4] = test system: mouse; details: Carcinogenicity, cd1, Oral, Feed, dose end: 78 week, group: systemic
[5] = test system: rat; details: Prenatal developmental toxicity study, sprague dawley, Oral, Gavage/Intubation, dose end: 15 GD; remark: listed apart in the source
[6] = test system: rat; details: Multigenerational reproductive toxicity study, sprague dawley, Oral, Feed, dose end: 2 generation
[7] = systemic / in life observation / food consumption / food consumption
[8] = systemic / in life observation / food consumption / food consumption + systemic / clinical chemistry / cholesterol / cholesterol + systemic…
[9] = group: developmental, developmental / developmental malformation / bone / incomplete ossification + developmental / developmental malformation / bone / split …
[10] = group: maternal, systemic / in life observation / body weight / body weight gain + systemic / in life observation / clinical signs / salivation + …
[11] = group: developmental, developmental / developmental malformation / bone / delayed ossification
[12] = group: developmental, developmental / developmental malformation / bone / delayed ossification + developmental / developmental malformation / ureter / distended
[13] = group: maternal, systemic / in life observation / body weight / body weight gain + systemic / in life observation / food consumption / food consumption
[14] = group: maternal, systemic / in life observation / body weight / body weight gain + systemic / in life observation / food consumption / food consumption + …
[15] = group: offspring, systemic / in life observation / body weight / offspring (pup) weight
[16] = group: parental, systemic / in life observation / body weight / body weight + systemic / in life observation / body weight / body weight gain

CCSC(C)CC1CC(=O)C(C(CC)=NOC/C=C/Cl)=C(O)C1 (stereo unspecified) [Clethodim]
NOAEL ([1]; systemic / in life observation / body weight / body weight gain + systemic / organ weight / liver / absolute + systemic / pathology …): 19 mg/kg/day
LOAEL ([1]; systemic / in life observation / body weight / body weight gain + systemic / organ weight / liver / relative to body weight + systemic / …): 100 mg/kg/day
LEL ([1]; systemic / pathology microscopic / bone marrow / hypocellularity): 0.64 mg/kg/day
NEL ([1]; systemic / pathology microscopic / bone marrow / hypocellularity + systemic / in life observation / body weight / body weight + systemic / …): 0.18 mg/kg/day
LEL [2, 7]: 25 mg/kg/day
LOAEL [2, 7]: 25 mg/kg/day
NEL [2, 8]: 2.3 mg/kg/day
NOAEL [2, 8]: 2.3 mg/kg/day
LEL ([3]; group: developmental, developmental / developmental malformation / bone / absent + developmental / developmental malformation / mouth / jaw / maxillary …): 100 mg/kg/day
LOAEL [3, 9]: 350 mg/kg/day
NEL [3, 9]: 10 mg/kg/day
NOAEL [3, 9]: 100 mg/kg/day
LOAEL ([3]; group: maternal, systemic / in life observation / body weight / body weight gain + systemic / in life observation / clinical signs / salivation): 350 mg/kg/day
LEL ([3]; group: maternal, systemic / in life observation / body weight / body weight gain + systemic / in life observation / clinical signs / salivation + systemic / …): 350 mg/kg/day
NEL [3, 10]: 100 mg/kg/day
NOAEL [3, 10]: 100 mg/kg/day
LEL ([4]; systemic / pathology microscopic / liver / adenoma + systemic / pathology microscopic / lung / adenoma + systemic / hematology / erythrocyte…): 30 mg/kg/day
NEL ([4]; systemic / pathology microscopic / liver / adenoma + systemic / pathology microscopic / lung / adenoma + systemic / pathology microscopic / …): 3 mg/kg/day
LOAEL ([4]; systemic / pathology microscopic / liver / hypertrophy + systemic / organ weight / liver / relative to body weight + systemic / organ weight…): 150 mg/kg/day
NOAEL ([4]; systemic / pathology microscopic / liver / hypertrophy + systemic / pathology microscopic / liver / adenoma + systemic / hematology / …): 30 mg/kg/day

COC[C@H](C)N(C(=O)CCl)c1c(C)csc1C [Dimethenamid-P]
LEL [5, 11]: 150 mg/kg/day
LOAEL [5, 11]: 150 mg/kg/day
NEL [5, 12]: 25 mg/kg/day
NOAEL [5, 12]: 25 mg/kg/day
LOAEL [5, 13]: 25 mg/kg/day
NOAEL [5, 13]: < 25 mg/kg/day
LEL [5, 14]: 25 mg/kg/day
NEL [5, 14]: < 25 mg/kg/day

CC1COc2ccccc2N1C(=O)C(Cl)Cl (stereo unspecified) [Benoxacor]
LEL [6, 15]: 45.5 mg/kg/day
LOAEL [6, 15]: 45.5 mg/kg/day
NEL [6, 15]: 4.2 mg/kg/day
NOAEL [6, 15]: 4.2 mg/kg/day
LEL [6, 16]: 34.8 mg/kg/day
LOAEL [6, 16]: 34.8 mg/kg/day
NEL [6, 16]: 3.55 mg/kg/day
NOAEL [6, 16]: 3.55 mg/kg/day

Source: EPA's ToxRefDB 2
